Test results: US9302999B2, “Substituted triazoles as herbicides” (E. I. DU PONT DE NEMOURS AND COMPANY, priority 2012, dated 2016)

Legend:
Format in all cases: in vivo
[1] = system: smallflower umbrella sedge (CYPDI, Cyperus difformis); experiment: Test G paddy, alone and in combination: smallflower umbrella sedge; details: evaluated after 14 days
Protocol: (§1) Seeds of smallflower umbrella sedge (CYPDI, Cyperus difformis) and ducksalad (HETLI, Heteranthera limosa) were sown on the soil surface in two separate quadrants of 11 cm tubs filled with steam pasteurized Tama soil. Simultaneously, plantings of barnyardgrass (ECHCG, Echinochloa crus-galli) and japonica rice (ORYSP, Oryza sativa) were established in separate “plug” flats. Plants were grown in a greenhouse using supplemental lighting to maintain a photoperiod of approximately 16 h; daytime and nighttime temperatures were approximately 27-30° C. and 19-22° C., respectively. After 8 days, barnyardgrass plants were transplanted to one of the remaining quadrants of the tub, and the water level was adjusted to a final depth of 3 cm. Herbicide application timing was targeted at the 2.0 to 2.5 leaf stage and the plants were treated with test chemicals formulated in a non-phytotoxic solvent. Treated plants and controls were maintained in a greenhouse for 14 days, after which time all species were compared to controls and visually evaluated. Plant response ratings are summarized in Tables G1 through G3, and are based on a scale of 0 to 100 where 0 is no effect and 100 is complete control. A dash (-) response means no test result.

[2] = system: barnyardgrass (ECHCG, Echinochloa crus-galli); experiment: Test G paddy, alone and in combination: barnyardgrass; details: evaluated after 14 days
Protocol: as §1

[3] = system: ducksalad (HETLI, Heteranthera limosa); experiment: Test G paddy, alone and in combination: ducksalad; details: evaluated after 14 days
Protocol: as §1

[4] = system: dayflower, (VA) (Virginia dayflower, Commelina virginica); experiment: Test E pre-/postemergence: dayflower, (VA); details: scale 0 to 100
From the text: (§2) Seeds of plant species selected from corn (Zea mays), soybean (Glycine max), velvetleaf (Abutilon theophrasti), lambsquarters (Chenopodium album), poinsettia, wild (wild poinsettia, Euphorbia heterophylla), pigweed, palmer (palmer pigweed, Amaranthus palmeri), waterhemp (common waterhemp, Amaranthus rudis), smartweed (ladysthumb smartweed, Polygonum persicaria), surinam grass (Brachiaria decumbens), crabgrass, large (large crabgrass, Digitaria sanguinalis), crabgrass, Brazil (Brazilian crabgrass, Digitaria horizontalis), panicum, fall (fall panicum, Panicum dichotomiflorum), foxtail, giant (giant foxtail, Setaria faberii), foxtail, green (green foxtail, Setaria viridis), goosegrass (Eleusine indica), johnsongrass (Sorghum halepense), ragweed (common ragweed, Ambrosia elation), barnyardgrass (Echinochloa crus-galli), sandbur (southern sandbur, Cenchrus echinatus), arrowleaf sida (Sida rhombifolia), ryegrass, Italian (Italian ryegrass, Lolium multiflorum), dayflower, (VA) (Virginia dayflower, Commelina virginica), field bindweed (Convolvulus arvensis), cocklebur (common cocklebur, Xanthium strumarium), morningglory (Ipomoea coccinea), nightshade (eastern black nightshade, Solanum ptycanthum), kochia (Kochia scoparia), nutsedge, yellow (yellow nutsedge, Cyperus esculentus) and beggarticks (hairy beggarticks, Bidens pilosa) were planted into a silt loam soil and treated preemergence with test chemicals formulated in a non-phytotoxic solvent mixture which included a surfactant. At the same time, plants selected from these crop and weed species were planted in pots containing a growing medium comprising spaghnum peat moss, vermiculite, wetting agent and starter nutrients and treated with postemergence applications of some of the test chemicals formulated in the same manner. Plants ranged in height from 2 to 18 cm for postemergence treatments (1- to 4-leaf stage).
(§3) Treated plants and controls were maintained in a greenhouse for 14 to 21 days, after which time all species were compared to controls and visually evaluated. Plant response ratings, summarized in Table E, are based on a scale of 0 to 100 where 0 is no effect and 100 is complete control. A dash (-) response means no test result.

[5] = system: japonica rice (ORYSP, Oryza sativa); experiment: Test G paddy, alone and in combination: japonica rice; details: evaluated after 14 days
Protocol: as §1

[6] = system: waterhemp_RES1 (ALS/Triazine resistant common waterhemp, Amaranthus rudis); experiment: Test F postemergence: waterhemp_RES1; details: scale 0 to 100
From the text: (§4) Seeds of plant species selected from corn (Zea mays), soybean (Glycine max), velvetleaf (Abutilon theophrasti), lambsquarters (Chenopodium album), poinsettia, wild (wild poinsettia, Euphorbia heterophylla), pigweed, palmer (palmer pigweed, Amaranthus palmeri), waterhemp (common waterhemp, Amaranthus rudis), surinam grass (Brachiaria decumbens), crabgrass, Brazil (Brazilian crabgrass, Digitaria horizontalis), panicum, fall (fall panicum Panicum dichotomiflorum), crabgrass, large (large crabgrass, Digitaria sanguinalis), foxtail, giant (giant foxtail, Setaria faberii), foxtail, green (green foxtail Setaria viridis), goosegrass (Eleusine indica), ragweed (common ragweed, Ambrosia elatior), barnyardgrass (Echinochloa crus-galli), sandbur (southern sandbur, Cenchrus echinatus), arrowleaf sida (Sida rhombifolia), ryegrass, Italian (Italian ryegrass, Lolium multiflorum), dayflower, VA (Virginia (VA) dayflower, Commelina virginica), field bindweed (Convolvulus arvensis), cocklebur (common cocklebur, Xanthium strumarium), morningglory (Ipomoea coccinea), nightshade (eastern black nightshade, Solanum ptycanthum), kochia (Kochia scoparia), nutsedge, yellow (yellow nutsedge, Cyperus esculentus), johnsongrass (Sorghum halepense), smartweed (ladysthumb smartweed, Polygonum persicaria), and beggarticks (hairy beggarticks, Bidens pilosa), were planted into a silt loam soil and treated preemergence with test chemicals formulated in a non-phytotoxic solvent mixture which included a surfactant. At the same time, plants selected from these crop and weed species and also pigweed (Amaranthus retroflexus), waterhemp_RES1 (ALS/Triazine resistant common waterhemp, Amaranthus rudis) and waterhemp_RES2 (ALS/HPPD resistant common waterhemp, Amaranthus rudis) were planted in pots containing a planting medium comprising spaghnum peat moss, vermiculite, wetting agent and starter nutrients treated with postemergence applications of some of the test chemicals formulated in the same manner. Plants ranged in height from 2 to 18 cm for postemergence treatments (1- to 4-leaf stage).
as §3

[7] = system: waterhemp_RES2 (ALS/HPPD resistant common waterhemp, Amaranthus rudis); experiment: Test F postemergence: waterhemp_RES2; details: scale 0 to 100
From the text: as §4, §3

[8] = system: Waterhemp; experiment: Test C preemergence: waterhemp; details: scale 0 (no effect) to 100 (complete control)
[9] = system: morningglory (Ipomoea coccinea); experiment: Test E pre-/postemergence: morningglory; details: Preemergence, scale 0 to 100
From the text: as §2, §3

In the case of `Cc1nn(-c2ccc(F)cc2)nc1Cc1ccnc(C(F)(F)F)c1` [Compound 16, 4-[[2-(4-fluorophenyl)-5-methyl-2H-1,2,3-triazol-4-yl]methyl]-2-(trifluoromethyl)pyridine], the “CYPDI plant response rating (scale of 0 to 100)” value (“CYPDI plant response rating” below) ([1]; Rate 8 g/ha) is reported as 85, the “CYPDI plant response rating” value ([1]; Rate 16 g/ha) is reported as 85 and the “ECHCG plant response rating (scale of 0 to 100)” value (“ECHCG plant response rating” for short) ([2]; Rate 8 g/ha) is reported as 25. The “ECHCG plant response rating” value ([2]; Rate 16 g/ha) was 35, the “HETLI plant response rating (scale of 0 to 100)” value (from here on “HETLI plant response rating”) ([3]; Rate 8 g/ha) was 0 and the “HETLI plant response rating” value ([3]; Rate 16 g/ha) was 60. For the same compound, the “Plant response rating: Dayflower, VA” value ([4]; Preemergence, 8 g ai/ha) was 0, the “Plant response rating: Dayflower, VA” value ([4]; Preemergence, 16 g ai/ha) was 0 and the “Plant response rating: Dayflower, VA” value ([4]; Preemergence, 31 g ai/ha) was 35. For the same compound, the “Plant response rating: Dayflower, VA” value ([4]; Preemergence, 62 g ai/ha) was 50, the “Plant response rating: Dayflower, VA” value ([4]; Preemergence, 125 g ai/ha) was 85 and the “ORYSP plant response rating (scale of 0 to 100)” value (from here on “ORYSP plant response rating”) ([5]; Rate 8 g/ha) was 10. The “ORYSP plant response rating” value ([5]; Rate 16 g/ha) was 15.

For `Cc1nn(-c2ccc(C(F)(F)F)c(F)c2)nc1Cc1ccnc(C(F)(F)F)c1` [Compound 162], the “Plant response rating, Waterhemp, Res1” value ([6]; 4 g ai/ha) was 70, the “Plant response rating, Waterhemp, Res1” value ([6]; 8 g ai/ha) was 90 and the “Plant response rating, Waterhemp, Res1” value ([6]; 16 g ai/ha) was 90. For the same compound, the “Plant response rating, Waterhemp, Res1” value ([6]; 31 g ai/ha) was 95, the “Plant response rating, Waterhemp, Res1” value ([6]; 62 g ai/ha) was 95 and the “Plant response rating, Waterhemp, Res2” value ([7]; 4 g ai/ha) was 75. For the same compound, the “Plant response rating, Waterhemp, Res2” value ([7]; 8 g ai/ha) was 90, the “Plant response rating, Waterhemp, Res2” value ([7]; 16 g ai/ha) was 90 and the “Plant response rating, Waterhemp, Res2” value ([7]; 31 g ai/ha) was 95. For the same compound, the “Plant response rating, Waterhemp, Res2” value ([7]; 62 g ai/ha) was 100.

In the case of `CCOc1nn(-c2ccc(Br)cc2)nc1Cc1ccnc(C(F)(F)F)c1` [Compound 189], the “Plant response rating, Waterhemp” value ([8]; 16 g ai/ha) is reported as 90 and the “Plant response rating, Waterhemp” value ([8]; 31 g ai/ha) is reported as 98.

For `CCc1nn(-c2ccc(F)cc2)nc1Oc1ccnc(C(F)(F)F)c1` [Compound 166], the “Plant response rating, Waterhemp” value ([8]; 31 g ai/ha) was 55.

In the case of `Cc1nn(-c2ccc(F)cc2)nc1Oc1ccnc(C(F)(F)F)c1` [Compound 129, 4-[[2-(4-fluorophenyl)-5-methyl-2H-1,2,3-triazol-4-yl]oxy]-2-(trifluoromethyl)pyridine], the “CYPDI plant response rating” value ([1]; Rate 16 g/ha) is reported as 0, the “CYPDI plant response rating” value ([1]; Rate 31 g/ha) is reported as 75 and the “CYPDI plant response rating” value ([1]; Rate 32 g/ha) is reported as 48. For the same compound, the “ECHCG plant response rating” value ([2]; Rate 16 g/ha) was 0, the “ECHCG plant response rating” value ([2]; Rate 31 g/ha) was 15 and the “ECHCG plant response rating” value ([2]; Rate 32 g/ha) was 5. For the same compound, the “Plant response rating: Morningglory” value ([9]; 8 g ai/ha) was 0, the “Plant response rating: Morningglory” value ([9]; 16 g ai/ha) was 0 and the “Plant response rating: Morningglory” value ([9]; 31 g ai/ha) was 0. For the same compound, the “Plant response rating: Morningglory” value ([9]; 62 g ai/ha) was 40, the “Plant response rating: Morningglory” value ([9]; 125 g ai/ha) was 50 and the “HETLI plant response rating” value ([3]; Rate 16 g/ha) was 0. The “HETLI plant response rating” value ([3]; Rate 31 g/ha) was 40, the “HETLI plant response rating” value ([3]; Rate 32 g/ha) was 25 and the “ORYSP plant response rating” value ([5]; Rate 16 g/ha) was 0. For the same compound, the “ORYSP plant response rating” value ([5]; Rate 31 g/ha) was 5 and the “ORYSP plant response rating” value ([5]; Rate 32 g/ha) was 10.

`Cc1nn(-c2ccc(C(F)(F)F)cc2)nc1Cc1ccnc(C(F)(F)F)c1` [Compound 47, 4-[[5-methyl-2-[4-(trifluoromethyl)phenyl]-2H-1,2,3-triazol-4-yl]methyl]-2-(trifluoromethyl)pyridine] was tested, and the “Plant response rating: Morningglory” value ([9]; 16 g ai/ha) was 15, the “Plant response rating: Morningglory” value ([9]; 31 g ai/ha) was 30 and the “Plant response rating: Morningglory” value ([9]; 62 g ai/ha) was 35. For the same compound, the “Plant response rating: Morningglory” value ([9]; 125 g ai/ha) was 40, the “Plant response rating: Morningglory” value ([9]; 250 g ai/ha) was 65 and the “Plant response rating: Dayflower, VA” value ([4]; Postemergence, 250 g ai/ha) was 30. The “Plant response rating: Dayflower, VA” value ([4]; Postemergence, 16 g ai/ha) was 10, the “Plant response rating: Dayflower, VA” value ([4]; Postemergence, 31 g ai/ha) was 10 and the “Plant response rating: Dayflower, VA” value ([4]; Postemergence, 62 g ai/ha) was 20. For the same compound, the “Plant response rating: Dayflower, VA” value ([4]; Postemergence, 125 g ai/ha) was 25.

With `Cc1nn(-c2ccc(F)c(F)c2)nc1Oc1ccnc(C(F)(F)F)c1` [Compound 145] the “Plant response rating, Waterhemp, Res1” value ([6]; 125 g ai/ha) was 90 and the “Plant response rating, Waterhemp, Res2” value ([7]; 125 g ai/ha) was 85.
